According to paper PMC3954708 (Bioorganic & medicinal chemistry letters, 2013):

Legend:
[1] = biological target: T1, UT-B (Homo sapiens, UniProt Q13336); assay: erythrocyte lysis assay for UT-B inhibition; assay type: cell-based, mouse
T1 sequence (Q13336 1-389): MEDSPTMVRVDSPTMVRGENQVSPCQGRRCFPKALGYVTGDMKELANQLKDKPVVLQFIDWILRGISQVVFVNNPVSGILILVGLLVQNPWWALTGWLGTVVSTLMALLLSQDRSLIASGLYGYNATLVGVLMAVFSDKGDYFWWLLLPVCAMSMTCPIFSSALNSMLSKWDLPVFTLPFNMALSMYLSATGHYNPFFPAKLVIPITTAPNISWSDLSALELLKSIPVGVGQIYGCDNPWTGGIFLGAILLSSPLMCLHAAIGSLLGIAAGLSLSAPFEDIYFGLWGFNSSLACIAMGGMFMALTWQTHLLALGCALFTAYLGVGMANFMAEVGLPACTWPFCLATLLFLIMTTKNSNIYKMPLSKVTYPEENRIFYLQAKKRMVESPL

[2] = administration to mice; cited from earlier work
[3] = cited from earlier work
[4] = system: UT-B; conditions: cited from earlier work
[5] = microsomal stability with rat liver microsomes and NADPH, LCMS analysis; assay type: in vitro ADME; conditions: liver microsomes
[6] = IC50 (UT-B inhibition activity), mouse erythrocyte lysis assay (n = 3), fit to single-site saturation model
[7] = IC50 (inhibitory potency, abstract), UT-B inhibition

With `CC(F)(F)c1ccc(S(=O)(=O)c2nnn3c2nc(NCC2CCC2)c2sccc23)cc1` [Compound 4f] as the compound, how does the IC50 [1, 6] read?
The IC50 was over 800 nM.

Which results are given for `CCc1ccc(S(=O)(=O)c2nnn3c2nc(NCc2cccs2)c2sccc23)cc1` [Compound 1a]?
effect on urine osmolality [2]: reduced urine osmolality; effect on urine output [2]: increased urine output; microsomal degradation / hepatic oxidation [3]: underwent rapid oxidation by hepatic enzymes; mechanism of UT-B inhibition [4]: competitive mechanism

Which IC50 [1, 7] does the source give for `Cc1csc(CNc2nc3c(S(=O)(=O)c4ccc(C(C)(F)F)cc4)nnn3c3ccsc23)c1` [Compound 4a] here?
The IC50 was about 40 nM.

Which results are given for `CC(F)(F)c1ccc(S(=O)(=O)c2nnn3c2nc(NCc2cccs2)c2sccc23)cc1` [Compound 1c]?
microsomal degradation / hepatic oxidation [3]: resisted microsomal degradation; remaining at 0.5 h [5]: 96%

With `CC(F)(F)c1ccc(S(=O)(=O)c2nnn3c2nc(NCc2ccsc2)c2sccc23)cc1` [Compound 4b] as the compound, how does the IC50 [1, 7] read?
Its IC50 is about 40 nM.

For `CC(F)(F)c1ccc(S(=O)(=O)c2nnn3c2nc(NCc2ccccc2)c2sccc23)cc1` [Compound 4d], which IC50 [1, 6] is on record?
The IC50 was over 800 nM.

For `CC(F)(F)c1ccc(S(=O)(=O)c2nnn3c2nc(NCC2CC2)c2sccc23)cc1` [Compound 4e], which IC50 [1, 6] is on record?
The IC50 was over 800 nM.
